Measurements published in PubChem BioAssay AID743308 (Sanford-Burnham Center for Chemical Genomics, 2014).

Molecular target: Low molecular weight phosphotyrosine protein phosphatase (Homo sapiens) (UniProt P24666)
Experiment: LMPTP phosphatase inhibitors, colorimetric pNPP readout, dose response, orthogonal assay, biochemical, absorbance, pNPP substrate, LMPTP-A isoform, set 2 (AID 743308)
Conditions: recombinant LMPTP-A

Low molecular weight phosphotyrosine protein phosphatase (Homo sapiens), sequence (P24666 whole entry, looked up, canonical isoform): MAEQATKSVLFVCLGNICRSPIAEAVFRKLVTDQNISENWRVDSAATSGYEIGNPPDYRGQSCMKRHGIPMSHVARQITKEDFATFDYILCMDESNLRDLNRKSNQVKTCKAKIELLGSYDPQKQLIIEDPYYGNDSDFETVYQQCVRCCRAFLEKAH

For `COc1ccc(-c2cc(NCCCN3CCCCC3)c3ccccc3n2)cc1`, the IC50 was 3.52 µM.
